# Measured values: PMC10923054, “Antiplasmodial peptaibols act through membrane directed mechanisms” (Cell Chemical Biology, 2024)
# Read-outs that look alike come from different tables or passages of the source. Square brackets hold non-standard residues; d marks the D form. Peptide text beside a SMILES is read from it. Phe(ol) = N[C@H](CO)Cc1ccccc1; Leu(ol) = CC(C)C[C@H](N)CO; dIva = CC[C@@](C)(N)C(=O)O; Aib = CC(C)(N)C(=O)O
# Assays:
# P. falciparum 3D7 = experiment: Phenotypic screen: asexual blood stage EC50 determination (SYBR Green I); format: cell-based; conditions: CQ sensitive line, asynchronous culture, 72 h, mean ± SEM, biological triplicate
# Procedure: Asexual blood stage parasites grown in the Chakrabarti laboratory were cultured based on a protocol by Trager and Jensen[57] with some modifications.[35] Culture was maintained at 4% hematocrit with human A+ whole blood obtained from the Florida OneBlood, in RPMI 1640 supplemented with 25 mM HEPES pH 7.4, 26 mM NaHCO3, 2% dextrose, 15 mg/L hypoxanthine, 25 mg/L gentamycin, and 0.5% Albumax II. Incubator conditions remained at 37°C and 5% CO2, 5% O2, 90% N2, or 95% air. For comparison screening using serum vs Albumax II, culture media was changed from RPMI with 0.5% Albumax II to RPMI with 10% human serum and maintained for a minimum of 2 weeks prior to assay use.
# Inhibitor EC50 determination in 3D7 and Dd2 was performed as discussed in,[35] based on established protocols.[60] Assays utilized asynchronous culture at 1% parasitemia, 1% hematocrit. Culture was incubated with compound dilutions for 72 h followed by freezing at −80°C to promote lysis, then thawing and incubation for 45 min–1 h with 1× SYBR Green I in a lysis buffer (20 mM Tris-HCL, 0.08% saponin, 5 mM EDTA, and 0.8% Triton X-100). Fluorescence was read 485 nm excitation, 530 nm emission on a Synergy Neo2 multimode reader (BioTek Winsooki, VT) and EC50 curves were generated using CDD Vault (https://www.collaborativedrug.com/).
# [1] = test system: HZ NPDG-I-resistant Dd2 clones (pfmdr1 mutants); format: cell-based, P. falciparum; conditions: for Fold Change in IC50 vs the parental line, clone 1B2 / Fold Change in IC50 vs the parental line, clone 1E2 / Fold Change in IC50 vs the parental line, clone 2B3 / Fold Change in IC50 vs the parental line, clone 3A3: Figure S5, 72 h, SYTO 61 flow cytometry; for pfMDR1 Clone Sensitivity: Figure 7A summary; as to pfMDR1 Clone Sensitivity: key: -: A '–' indicates a negative finding; a single '+' indicates a positive finding; a double '++' indicates a strong positive finding
# Procedure: Screening of HZ NPDG-I resistant clones was performed at 1% parasitemia, 0.2% hematocrit with flow cytometry in V-shaped 96-well plates. Briefly, compounds were subjected to a 3-fold serial dilution with the highest concentration set at 4 μM or 8 μM. Eleven dilution points were included in addition to no-drug controls. Three technical replicates were set up for each compound at each dilution point. The Dd2-B2 parent line, or the clonal line 1B2, 2B3, 3A3, or 1E2 were added at 0.4% hematocrit and 1% parasitemia to the diluted compounds at a 1:1 ratio. The plate was incubated at 37°C for 72 h in a chamber filled with a hypoxic gas mixture (3% oxygen, 5% carbon dioxide, and 92% nitrogen). After incubation, a blood pellet was formed at the bottom of each well of the 96-well plate. Supernatant was removed without disturbing the pellet, and 20 μl of SYTO 61(1:10,000 dilution; Thermo Fisher Scientific, Cat No. S11343) in PBS was added to each well and incubated for 15 mins at room temperature. The cells in each well were then diluted with 180 μl of PBS and subjected to flow cytometry for parasitemia determination using the HTS (High-Throughput Sampler) of BD FACSCanto II (BD Biosciences, NJ). Flow cytometry data was analyzed using FlowJo Version 10.4.0. Dose response curves were generated and IC50 values obtained with GraphPad Prism Version 9.1.1.
# A clone of the Dd2 strain (Dd2-B2) of P. falciparum was used for in vitro evolution of resistance against harzianin NPDG I. Three flasks of 1.2 x 10^8 parasites were continuously exposed to a stepwise-increasing concentration of the compound over ∼3 months starting from 20 nM up to a final concentration of 100 nM. Once a stable rightward shift in 72 h IC50 was observed, cultures were subjected to limiting dilution to obtained harzianin-resistant clones. Each clone was expanded, phenotyped to confirm resistance, and submitted for whole genome sequencing. An untreated flask of Dd2-B2 parasites was maintained in parallel throughout the course of in vitro selection as a control.
# [2] = test system: synchronized Dd2 parasites; experiment: Synchronous stage specificity assay (SSA); format: cell-based, P. falciparum; conditions: for stage of parasite arrest when added at 6 HPI: 5 x EC50 (TC HA-II 3 x EC50), Giemsa and YOYO-1 flow cytometry; for Stage of Inhibition: Figure 7A summary
# Procedure: SSA was performed in triplicate as previously described.[64] In summary, Dd2 culture was synchronized by combination of MACS column[65] and sorbitol treatment,[66] and cultured at 1% parasitemia, 2% hematocrit, for 54 h. Compound was added at approximately 6, 18, 30, or 42 HPI, and samples were taken every 12 h after treatment times for Giemsa staining and flow cytometric analysis. HZ NPDG-H and HZ NPDG-I were tested at 5 x EC50, TC HA-II tested at 3 x EC50 due to its higher hemolytic potential. All test values above EC90. Flow samples were fixed in 4% paraformaldehyde, incubated for 30 min at 37°C, then washed 3 times in PBS. Fixed samples were stored at 4°C prior to staining, then resuspended in 0.25% Trition X-100 and incubated for 10 min with shaking. Permeabilized samples were centrifuged and resuspended in a 50 μg/mL RNase solution, and incubated for 3 h at 37°C. After centrifugation, samples were resuspended in a YOYO-1 solution (500 nM final concentration) and read on a CytoFLEX S (Beckman Coulter, Brea, CA) at 488 nm excitation, with 100,000–500,000 events recorded per sample. Infected RBCs were gated using an uninfected RBC control in FlowJo version 10. After gating populations, FITC channel values were extracted from FlowJo and the sum total fluorescence of the iRBCs and the median fluorescence for each timepoint were graphed in Graph Pad Prism Version 9. Assay workflow outline was created using BioRender.
# [3] = test system: Dd2 strain parasites, digestive vacuole; experiment: Transmission electron microscopy of treated parasites; also: key: -: A '–' indicates a negative finding; a single '+' indicates a positive finding; a double '++' indicates a strong positive finding; format: cell-based, P. falciparum; conditions: Figure 7A summary
# Procedure: For TEM imaging, samples were prepared as previously described.[67] […] Culture was collected by centrifugation and washed with PBS, pH 7.4. Samples were then fixed in 2% paraformaldehyde, 2.5% glutaraldehyde, in a 0.1 M sodium cacodylate buffer, pH of 7.4, (Electron Microscopy Sciences, Hatfield, PA) and incubated for 2 h at room temp with mild shaking. After fixation, samples were pelleted and stored cold but not frozen in 0.2 M sodium cacodylate buffer prior to staining and embedment in Eponate 12 resin (Ted Pella Inc.). Images were taken using a JEOL 1200 EX transmission electron microscope (JEOL USA Inc., Peabody MA) and processed in AMT Image Capture Engine V602 software (Advanced Microscopy Techniques, Woburn, MA.).
compound,measurement,setting,value
"CC(=O)NC(C)(C)C(=O)N1CCC[C@H]1C(=O)NC(C)(C)C(=O)N[C@@H](C)C(=O)NC(C)(C)C(=O)N[C@@H](C)C(=O)N[C@@H](CCC(N)=O)C(=O)NC(C)(C)C(=O)N[C@H](C(=O)NC(C)(C)C(=O)NCC(=O)N[C@@H](CC(C)C)C(=O)NC(C)(C)C(=O)N1CCC[C@H]1C(=O)N[C@H](C(=O)NC(C)(C)C(=O)NC(C)(C)C(=O)N[C@@H](CCC(=O)O)C(=O)N[C@@H](CCC(N)=O)C(=O)N[C@H](CO)Cc1ccccc1)C(C)C)C(C)C [Alamethicin, reference compound] (Ac-[Aib]P[Aib]A[Aib]AQ[Aib]V[Aib]GL[Aib]PV[Aib][Aib]EQ[Phe(ol)]; N-terminus assumed)",EC50,P. falciparum 3D7,540 ± 30 nM
same,"Fold Change in IC50 vs the parental line, clone 1B2",[1],0.55
same,"Fold Change in IC50 vs the parental line, clone 1E2",[1],0.45
same,"Fold Change in IC50 vs the parental line, clone 2B3",[1],0.63
same,"Fold Change in IC50 vs the parental line, clone 3A3",[1],0.54
"CC[C@H](C)[C@H](NC(=O)[C@H](C)NC(=O)[C@@H]1CCCN1C(=O)C(C)(C)NC(=O)[C@H](CC(C)C)NC(=O)[C@H](CCC(N)=O)NC(=O)[C@@](C)(CC)NC(C)=O)C(=O)NC(C)(C)C(=O)N1CCC[C@H]1C(=O)N[C@](C)(CC)C(=O)N[C@@H](CC(C)C)C(=O)NC(C)(C)C(=O)N1CCC[C@H]1C(=O)N[C@H](CO)CC(C)C [HZ NPDG-H, harzianin NPDG H] (Ac-[dIva]QL[Aib]PAI[Aib]P[dIva]L[Aib]P[Leu(ol)])",EC50,P. falciparum 3D7,120 ± 10 nM
same,stage of parasite arrest when added at 6 HPI,[2],late trophozoite to early schizont stage
same,Stage of Inhibition,[2],Schizont
same,DV Abnormalities,[3],+
same,EC50 increase in HZ NPDG-I resistant clones vs parental line,[1]; 4 resistant clones screened,1.4 fold
same,pfMDR1 Clone Sensitivity,[1],-
same,"Fold Change in IC50 vs the parental line, clone 1B2",[1],0.62
same,"Fold Change in IC50 vs the parental line, clone 1E2",[1],0.98
same,"Fold Change in IC50 vs the parental line, clone 2B3",[1],1.14
same,"Fold Change in IC50 vs the parental line, clone 3A3",[1],1.40
"CC[C@H](C)[C@H](NC(=O)[C@H](CC(C)C)NC(=O)[C@H](CCC(N)=O)NC(=O)[C@@](C)(CC)NC(C)=O)C(=O)NC(C)(C)C(=O)N1CCC[C@H]1C(=O)N[C@](C)(CC)C(=O)N[C@@H](CC(C)C)C(=O)NC(C)(C)C(=O)N1CCC[C@H]1C(=O)N[C@H](CO)CC(C)C [HZ NPDG-I, harzianin NPDG I] (Ac-[dIva]QLI[Aib]P[dIva]L[Aib]P[Leu(ol)])",EC50,P. falciparum 3D7,120 ± 10 nM
same,stage of parasite arrest when added at 6 HPI,[2],arrest parasite development in early ring
same,Stage of Inhibition,[2],Ring
same,DV Abnormalities,[3],+
same,pfMDR1 Clone Sensitivity,[1],++
same,"Fold Change in IC50 vs the parental line, clone 1B2",[1],8.70
same,"Fold Change in IC50 vs the parental line, clone 1E2",[1],5.70
same,"Fold Change in IC50 vs the parental line, clone 2B3",[1],7.00
same,"Fold Change in IC50 vs the parental line, clone 3A3",[1],4.50
same,"fold change, clone 1D5","[1]; flask 1, IC50 vs Dd2-B2",4.65
same,"fold change, clone 1H3","[1]; flask 1, IC50 vs Dd2-B2",7.57
same,"fold change, clone Harzianin-Dd2-1B2","[1]; flask 1, IC50 vs Dd2-B2",8.64
same,"fold change, clone Harzianin-Dd2-1C12","[1]; flask 1, IC50 vs Dd2-B2",9.71
same,"fold change, clone Harzianin-Dd2-1E2","[1]; flask 1, IC50 vs Dd2-B2",5.63
same,IC50,"[1]; flask 1, read-out: IC50, clone 1D5",0.249 nM
same,IC50,"[1]; flask 1, read-out: IC50, clone 1H3",0.406 nM
same,IC50,"[1]; flask 1, read-out: IC50, clone Harzianin-Dd2-1B2",0.463 nM
same,IC50,"[1]; flask 1, read-out: IC50, clone Harzianin-Dd2-1C12",0.52 nM
same,IC50,"[1]; flask 1, read-out: IC50, clone Harzianin-Dd2-1E2",0.302 nM
same,"fold change, clone 2B7","[1]; flask 2, IC50 vs Dd2-B2",3.87
same,"fold change, clone 2E9","[1]; flask 2, IC50 vs Dd2-B2",6.77
same,"fold change, clone Harzianin-Dd2-2B3","[1]; flask 2, IC50 vs Dd2-B2",6.98
same,"fold change, clone Harzianin-Dd2-2E8","[1]; flask 2, IC50 vs Dd2-B2",5.31
same,"fold change, clone Harzianin-Dd2-2G7","[1]; flask 2, IC50 vs Dd2-B2",4.60
same,IC50,"[1]; flask 2, read-out: IC50, clone 2B7",0.0859 nM
same,IC50,"[1]; flask 2, read-out: IC50, clone 2E9",0.15 nM
same,IC50,"[1]; flask 2, read-out: IC50, clone Harzianin-Dd2-2B3",0.155 nM
same,IC50,"[1]; flask 2, read-out: IC50, clone Harzianin-Dd2-2E8",0.118 nM
same,IC50,"[1]; flask 2, read-out: IC50, clone Harzianin-Dd2-2G7",0.102 nM
same,"fold change, clone 3A5","[1]; flask 3, IC50 vs DD2-B2",4.30
same,"fold change, clone 3B7","[1]; flask 3, IC50 vs DD2-B2",4.05
same,"fold change, clone 3G7","[1]; flask 3, IC50 vs DD2-B2",3.98
same,"fold change, clone Harzianin-Dd2-3A3","[1]; flask 3, IC50 vs DD2-B2",4.51
same,"fold change, clone Harzianin-Dd2-3C6","[1]; flask 3, IC50 vs DD2-B2",4.68
same,"fold change, clone Harzianin-Dd2-3G11","[1]; flask 3, IC50 vs DD2-B2",3.93
same,IC50,"[1]; flask 3, read-out: IC50, clone 3A5",0.188 nM
same,IC50,"[1]; flask 3, read-out: IC50, clone 3B7",0.177 nM
same,IC50,"[1]; flask 3, read-out: IC50, clone 3G7",0.174 nM
same,IC50,"[1]; flask 3, read-out: IC50, clone Harzianin-Dd2-3A3",0.197 nM
same,IC50,"[1]; flask 3, read-out: IC50, clone Harzianin-Dd2-3C6",0.204 nM
same,IC50,"[1]; flask 3, read-out: IC50, clone Harzianin-Dd2-3G11",0.172 nM
"CC[C@@](C)(NC(=O)C(C)(C)NC(=O)[C@H](CC(C)C)NC(=O)[C@@H]1CCCN1C(=O)C(C)(C)NC(=O)[C@H](CC(C)C)NC(=O)CNC(=O)C(C)(C)NC(=O)[C@@H](NC(=O)C(C)(C)NC(=O)[C@H](CCC(N)=O)NC(=O)C(C)(C)NC(=O)C(C)(C)NC(=O)[C@H](C)NC(=O)CNC(=O)C(C)(C)NC(C)=O)C(C)C)C(=O)N[C@@H](CCC(N)=O)C(=O)N[C@H](CO)CC(C)C [TC HA-II, trichorzin HA II] (Ac-[Aib]GA[Aib][Aib]Q[Aib]V[Aib]GL[Aib]PL[Aib][dIva]Q[Leu(ol)])",EC50,P. falciparum 3D7,390 ± 90 nM
same,stage of parasite arrest when added at 6 HPI,[2],early arrest with a condensed permatroph morphology
same,Stage of Inhibition,[2],Ring
same,DV Abnormalities,[3],+
same,pfMDR1 Clone Sensitivity,[1],-
